*1 amine or outer side, *2 acyl side, *3 side chain or, on linkers, in order; H or OH if unused. Where a SMILES comes first, the peptide text is derived from it. Bridges are numbered along the chain shown (N, C = ends). Side-chain parts run from the residue outwards. [ ]: non-standard residue; d: D form. The star is where a group is joined. γGlu = O=C(O)[C@H](CCC(=O)[*:2])N[*:1]; Palmitoyl = CCCCCCCCCCCCCCCC(=O)*

The values that follow come from US20230285514A1, “STAPLED LACTAM CO-AGONISTS OF THE GLUCAGON AND GLP-1 RECEPTORS” (Merck Sharp & Dohme LLC, priority 2019, published 2023).

This assay deals with T1, human GCGR (Homo sapiens, UniProt P47871).
T1 construct: expressed in transfected cells
T1 sequence (P47871 26-477): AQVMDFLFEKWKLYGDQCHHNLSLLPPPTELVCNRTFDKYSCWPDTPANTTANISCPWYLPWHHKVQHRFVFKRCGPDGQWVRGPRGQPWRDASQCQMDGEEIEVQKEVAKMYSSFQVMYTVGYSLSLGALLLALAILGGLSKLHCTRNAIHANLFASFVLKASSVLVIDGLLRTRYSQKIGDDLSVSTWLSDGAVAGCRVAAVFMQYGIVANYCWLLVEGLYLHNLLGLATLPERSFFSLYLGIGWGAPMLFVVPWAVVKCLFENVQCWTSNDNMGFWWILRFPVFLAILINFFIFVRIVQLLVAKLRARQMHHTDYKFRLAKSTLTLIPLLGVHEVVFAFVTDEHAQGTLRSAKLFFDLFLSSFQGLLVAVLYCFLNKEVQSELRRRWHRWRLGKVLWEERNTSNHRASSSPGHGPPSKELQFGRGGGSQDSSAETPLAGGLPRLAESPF
Briefly: cAMP activity assay, cells expressing human GCGR. Particulars: for hGCGR/hGLPIR (hTone): ratio of human GCGR EC50 to human GLP1R EC50. It counts as cell-based. As to the method: Activity of the peptides at the Glucagon receptor (GCGR) and GLP-1 receptor (GLP1R) was measured in a cAMP activity assay. Peptides were dissolved in 100% DMSO and serially diluted to generate 10 point titrations. The peptide solutions were then transferred into 384-well assay plates (150 nL/well). Assay ready frozen cells expressing human GLP1R or human GCGR were suspended in growth media consisting of DMEM medium (GIBCO), 10% FBS (GIBCO), 1×NEAA(GIBCO), 1×P/S (GIBCO), 10 ug/ml Blasticidin (GIBCO) and 200 μg/mL Hygromycin (GIBCO). […] The cell suspensions (15 μL) were then added to the assay plates containing the peptide solutions (30,000 cells/well for human GCGR; 10,000 cells/well for human GLP1R). […] Production of cAMP was determined using […] kits (DiscoverX) following manufacturer protocol. The plates were incubated for overnight at room temperature in the dark. Luminescence was measured using an EnVision Multilabel plate reader (Perkin Elmer). Native GLP-1 and Glucagon (Bachem) are used as control peptides.

As to `CCCCCCCCCCCCCCCC(=O)N[C@@H](CCC(=O)N[C@@H](CCC(=O)NCCCC[C@H](NC(=O)[C@H](CC(=O)O)NC(=O)[C@H](CO)NC(=O)[C@@H](NC(=O)[C@H](Cc1ccccc1)NC(=O)[C@@H](NC(=O)CNC(=O)[C@H](CCC(N)=O)NC(=O)[C@@H](CO)NC(=O)[C@@H](N)Cc1c[nH]cn1)[C@@H](C)O)[C@@H](C)O)C(=O)N[C@@H](CO)C(=O)N[C@@H](CCCCN)C(=O)N[C@@H](Cc1ccc(O)cc1)C(=O)N[C@@H](CC(C)C)C(=O)N[C@@H](CC(=O)O)C(=O)N[C@@H](CCC(=O)O)C(=O)N[C@@H](CCCNC(=N)N)C(=O)N[C@@H](C)C(=O)N[C@@H](C)C(=O)N[C@H]1CCCCNC(=O)CC[C@@H](C(=O)N[C@@H](Cc2c[nH]c3ccccc23)C(=O)N[C@@H](CC(C)C)C(=O)N[C@@H](CC(C)C)C(=O)N[C@@H](CC(=O)O)C(=O)N[C@H](C(N)=O)[C@@H](C)O)NC(=O)[C@H](C(C)C)NC(=O)[C@H](Cc2ccccc2)NC(=O)[C@H](CC(=O)O)NC1=O)C(=O)O)C(=O)O` [SEQ ID NO: 8] (H-H[dS]QGTFTSDK([γGlu-γGlu-Palmitoyl])SKYLDERAAKDFVEWLLDT-NH2; lactam 20-24; N-terminus assumed), the “hGCGR/hGLPIR (hTone)” value was 0.84. As to `CCCCCCCCCCCCCCCC(=O)N[C@@H](CCC(=O)N[C@@H](CCC(=O)NCCCC[C@H](NC(=O)[C@H](CC(=O)O)NC(=O)[C@H](CO)NC(=O)[C@@H](NC(=O)[C@H](Cc1ccccc1)NC(=O)[C@@H](NC(=O)CNC(=O)[C@H](CCC(N)=O)NC(=O)[C@@H](CO)NC(=O)[C@@H](N)Cc1c[nH]cn1)[C@@H](C)O)[C@@H](C)O)C(=O)N[C@@H](CO)C(=O)N[C@@H](CCCCN)C(=O)N[C@@H](Cc1ccc(O)cc1)C(=O)N[C@@H](CC(C)C)C(=O)N[C@@H](CC(=O)O)C(=O)N[C@H]1CCCCNC(=O)CC[C@@H](C(=O)N[C@@H](CC(=O)O)C(=O)N[C@@H](Cc2ccccc2)C(=O)N[C@H](C(=O)N[C@@H](CCC(N)=O)C(=O)N[C@@H](Cc2c[nH]c3ccccc23)C(=O)N[C@@H](CC(C)C)C(=O)N[C@@H](CC(C)C)C(=O)N[C@@H](CC(=O)O)C(=O)N[C@H](C(N)=O)[C@@H](C)O)C(C)C)NC(=O)[C@H](C)NC(=O)[C@H](C)NC(=O)[C@H](CCCNC(=N)N)NC1=O)C(=O)O)C(=O)O` [SEQ ID NO: 10] (H-H[dS]QGTFTSDK([γGlu-γGlu-Palmitoyl])SKYLDKRAAEDFVQWLLDT-NH2; lactam 16-20; N-terminus assumed), the “hGCGR/hGLPIR (hTone)” value worked out at 0.8.

As a reminder, the EC50 is the concentration needed to bring the measured effect to its halfway point. Read a high EC50 as a less potent agent. Take `CCCCCCCCCCCCCCCC(=O)N[C@@H](CCC(=O)N[C@@H](CCC(=O)NCCCC[C@H](NC(=O)[C@H](CC(=O)O)NC(=O)[C@H](CO)NC(=O)[C@@H](NC(=O)[C@H](Cc1ccccc1)NC(=O)[C@@H](NC(=O)CNC(=O)[C@H](CCC(N)=O)NC(=O)[C@@H](CO)NC(=O)[C@@H](N)Cc1c[nH]cn1)[C@@H](C)O)[C@@H](C)O)C(=O)N[C@@H](CO)C(=O)N[C@@H](CCCCN)C(=O)N[C@@H](Cc1ccc(O)cc1)C(=O)N[C@@H](CC(C)C)C(=O)N[C@@H](CC(=O)O)C(=O)N[C@@H](C)C(=O)N[C@H]1CCCCNC(=O)CC[C@@H](C(=O)N[C@@H](Cc2ccccc2)C(=O)N[C@H](C(=O)N[C@@H](CCC(N)=O)C(=O)N[C@@H](Cc2c[nH]c3ccccc23)C(=O)N[C@@H](CC(C)C)C(=O)N[C@@H](CC(C)C)C(=O)N[C@@H](CC(=O)O)C(=O)N[C@H](C(N)=O)[C@@H](C)O)C(C)C)NC(=O)[C@H](CCC(N)=O)NC(=O)[C@H](C)NC(=O)[C@H](C)NC1=O)C(=O)O)C(=O)O` [SEQ ID NO: 12]: the “hGCGR/hGLPIR (hTone)” value is 0.8. The EC50 (cAMP production, cells expressing human GCGR, 1 hour, table does not say whether with or without 20% human serum) amounted to 0.06 nM.
